Consider 2 molecules from patent publication US20040024033A1 (priority 1998, published 2004).

The test system of data set [1] is human HCT-15 colon carcinoma. Format: in vivo, female BALB/c nude mice. The protocol: (§1) Female or male BALB/c nu/nu (nude) mice are kept under sterile conditions (10 to 12 mice per Type III cage) with free access to food and water. Mice weigh between 20 and 25 grams at the time of tumor implantation. Tumors are established by subcutaneous injection of cells (minimum 2×10^6 cells in 100 μl PBS or medium) in carrier mice (4-8 mice per cell line). The resulting tumors are serially passaged for a minimum of three consecutive transplantations prior to start of treatment. Tumor fragments (approx. 25 mg) are implanted s.c. into the left flank of animals with a 13-gauge trocar needle while the mice are exposed to Forene (Abbott, Switzerland) anesthesia.
(§2) Tumor growth and body weights are monitored once or twice weekly. All treatments are administered intravenously (i.v.) and are initiated when a mean tumor volume of approximately 100 to 250 mm^3 is attained, depending upon the tumor type. Tumor volumes are determined using the formula […] (see Cancer Chemother. Pharmacol. 24:148-154, [1989]). Treatments with epothilone B vary the dose and the frequency of administration. Comparator agents are administered according to previously determined optimal treatment regimens. In addition to presenting changes in tumor volumes over the course of treatment, antitumor activity is expressed as T/C% (mean increase of tumor volumes of treated animals divided by the mean increase of tumor volumes of control animals multiplied by 100). Tumor regression (%) represents the smallest mean tumor volume compared to the mean tumor volume at the start of treatment, according to the formula Regression (%)=(1−Vend/Vstart)×100 (Vend=final mean tumor volume, Vstart=mean tumor volume at the start of treatment. Any animals in which the tumor has reached a size exceeding approximately 1.5 to 2.5 cm^3 are sacrificed. Details can be found below.
Tumor fragments of approximately 25 mg are implanted into the left flank of each female nude mouse (n=8 per group). Treatments are started on day 14 after tumor transplantation. Epothilone B is administered once at 4 mg/kg, i.v. on day 14.5-Fluorouracil is administered at 75 mg/kg, i.v., on days 14 and 21. TAXOL® is administered i.v. at 20 mg/kg/day, every second day for 5 treatments (days 14, 16, 18, 20 and 22). Antitumor activity is expressed as T/C% (mean increase of tumor volumes of treated animals divided by the mean increase of tumor volumes of control animals multiplied by 100). Tumor regression (%) represents the final mean tumor volume compares to the mean tumor volume at the start of treatment. Δ Tumor volumes represent the tumor volume on the last treatment day minus the tumor volume on the first treatment day. Statistical analyses on Δ tumor volumes uses Dunnett's test to compare treatment groups to controls. Statistical analyses on body weight changes uses paired t-tests comparing body weights before treatment to those at the end of treatment; mice weigh ˜20-25 g at the start of treatment. Not significant is indicated by the abbreviation ,ns”. Data presented are means±SEM from animals surviving to the end of the experiment.

Data set [2] deals with human COLO 205 colon tumors. Format: in vivo, female BALB/c nude mice. The conditions noted are these: 75 mg/kg, i.v. every 7 days; day 32. The protocol: as §1, §2
Tumor fragments of approximately 25 mg are implanted into the left flank of each female nude mouse (n=7 per group); a subcutaneous estrogen pellet is placed on the opposite flank. Treatments are started on day 14 after tumor transplantation. epothilone B is administered at 4 mg/kg, i.v., either once or once per week (days 14, 21, 28) or every second week (days 14 and 28). 5-fluorouracil is administered i.v. at 75 mg/kg on days 14, 21, 28. Data presented are from animals surviving to day 32, four days after the last treatments. Antitumor activity is expressed as T/C% (mean increase of tumor volumes of treated animals divided by the mean increase of tumor volumes of control animals multiplied by 100). Tumor regression (%) represents the final mean tumor volume compared to the mean tumor volume at the start of treatment. Changes (A) in tumor volumes represent the tumor volume on the last treatment day minus the tumor volume on the first treatment day.

For another data set, the system named is ZR-75-1 (Breast). Put plainly: Antiproliferative assay, ZR-75-1. The format is cell-based. The note with it: Homo sapiens, 120 h, 5 d exposure, mean ± SD, n = 3, read-out: IC50-values for growth inhibition. The protocol:
(§3) Antiproliferative assays are performed as previously described (Int. J. Cancer 43, 851-6 (1989)). Briefly, cells are seeded at 1.5×10^3 cells/well into 96-well microtiter plates and incubated overnight. Compounds are added in serial dilutions on day 1. The plates are then incubated for an additional 2 to 5 days, allowing for at least one cell doubling (cell line dependent), after which the cells are fixed with 3.3% v/v glutaraldehyde, washed with water and stained with 0.05% w/v methylene blue. After washing, the dye is eluted with 3% V/V HCl and the optical density measured at 665 nm with a SpectraMax 340 (Bucherer, Basel, Switzerland). IC50 values are determined by a computerized system (SoftPro, Bucherer, Basel, Switzerland) using the formula (OD test−OD start)/(OD control−OD start)×100. IC50 is defined as the drug concentration which leads to 50% of cells per well compared to control cultures (100%) at the end of incubation period.

For the next data set, the system named is HCT-15 (Colon). The data set is described as follows: Antiproliferative assay, HCT-15. The format is cell-based. The note with it: Homo sapiens, 120 h, 5 d exposure, mean ± SD, n = 3, read-out: IC50-values for growth inhibition.
Description: Human colorectal adenocarcinoma cell line HCT-15 (ATCC CCL 225) is from the American Type Culture Collection (Rockville, Md., USA), and the cells are cultivated in vitro as recommended by the supplier. HCT-15 is an epithelial-like cell line (Cancer Res. 39: 1020-25 [1979]) that is multi-drug resistant by virtue of over-expression of P-glycoprotein (P-gp, gp170, MDR-1; Anticancer Res. 11: 1309-12 [1991]; J. Biol. Chem. 264: 18031-40 [1989]; Int. J. Cancer 1991; 49: 696-703 [1991]) and glutathione-dependent resistance mechanisms (Int. J. Cancer 1991; 49: 688-95.[1991]).
as §3, with “IC50 is defined as the drug concentration which leads to 50% of cells per well compared to control cultures (100%) at the end of incubation period.” left out

For data set [3], the system named is KB-8511 (Epidermoid, MDR). Put plainly: Antiproliferative assay, KB-8511. The format is cell-based. The note with it: Homo sapiens, 48 h, 2 d exposure, mean ± SD, read-out: IC50-values for growth inhibition. The protocol:
The human epidermal (mouth) carcinoma cell line KB-8511 (a P-gp over-expressing cell line derived from the epidermoid (mouth) KB-31 carcinoma cell line) is obtained from Dr. R. M. Baker, Roswell Park Memorial Institute (Buffalo, N.Y., USA) (for description see Akiyama et al., Somat. Cell. Mol. Genetics 11, 117-126 (1985) and Fojo A., et al., Cancer Res. 45, 3002-3007 (1985)) and is cultured as previously described (Meyer, T., et al., Int. J. Cancer 43, 851-856 (1989)): KB-8511 cells, like KB-31, are derived from the KB cell line (ATCC) and they are human epidermal carcinoma cells; KB-31 cells can be grown in mono-layer using Dulbecco's modified Eagle's medium (D-MEM) with 10% fetal calf serum (M.A. Bioproducts), L-glutamine (Flow), penicillin (50 units/ml) and streptomycin (50 μg/ml (Flow); they then grow with a doubling time of 22 h, and their relative plating efficiency is approximately 60%.
(§4) Antiproliferative assays are performed as previously described (Int. J. Cancer 43, 851-6 (1989)). […] After washing, the dye is eluted with 3% V/V HCl and the optical density measured at 665 nm with a SpectraMax 340 (Bucherer, Basel, Switzerland). IC50 values are determined by a computerized system (SoftPro, Bucherer, Basel, Switzerland) using the formula (OD test−OD start)/(OD control−OD start)×100. […]

A further data set concerns PC-3M (Prostate). Put plainly: Antiproliferative assay, PC-3M. Format: cell-based. The note with it: Homo sapiens, 72 h, 3 d exposure, mean ± SD, read-out: IC50-values for growth inhibition. The protocol: A human androgen-independent prostate cancer cell line is used to establish subcutaneous and orthotopic models in mice. The human metastatic prostate carcinoma PC-3M is obtained from Dr. I. J. Fidler (MD Anderson Cancer Center, Houston, Tex., USA) and is cultured in Ham's F12K media supplemented with 7% v/v FBS. The PC-3M cell line is the result of isolation from liver metastasis produced in nude mice subsequent to intrasplenic injection of PC-3 cells [ATCC CRL 1435; American Type Culture Collection (Rockville, Md., USA)], and they can grow in Eagle's MEM supplemented with 10% fetal bovine serum, sodium pyruvate, non-essential amino acids, L-glutamine, a two-fold vitamin solution (Gibco Laboratories, Long Island, N.Y.) and penicillin-streptomycin (Flow Laboratories, Rockville, Md.). The PC-3M cell line is hormone-insensitive (that is, it grows in the absence of androgens). […] No normal Y chromosomes can be detected by Q-band analysis.
as §4

As usually defined, the T/C is the result in the treated group divided by that in the control group, in per cent. In the case of `O=c1[nH]cc(F)c(=O)[nH]1` [5-fluorouracil, reference compound], the “% Body Weight Change” value in data set [1] (75 mg/kg, i.v., on days 14 and 21) was determined as 9 ± 4%. Also, the “D Body Weight” value in data set [1] (75 mg/kg, i.v., on days 14 and 21, mean ± SEM) was 2.0 ± 0.7 g. Moreover, in data set [1] (two 75 mg/kg administrations), the “Mortalities (deaths)” value turned out to be 50%. Also, the T/C in data set [2] was 18%.

What is called IC50 is the concentration that gives 50% inhibition. `CC(=O)O[C@H]1C(=O)[C@@]2(C)[C@H]([C@H](OC(=O)c3ccccc3)[C@]3(O)C[C@H](OC(=O)[C@H](O)[C@@H](NC(=O)c4ccccc4)c4ccccc4)C(C)=C1C3(C)C)[C@]1(OC(C)=O)CO[C@@H]1C[C@@H]2O` [paclitaxel]: the IC50 was 3.6 ± 1.87 nM in the data set on ZR-75-1 (Breast), 106 ± 54 nM in the data set with HCT-15 (Colon), 994 nM in data set [3] and 6.74 nM with PC-3M (Prostate).
